Tests used:
Arabidopsis thaliana [1] = experiment: MOA1 biochemical (metabolite) profiling by LC-MS and GC-MS
Magnaporthe grisea = type: cell-based
[2] = tested on: Arabidopsis thaliana plants; experiment: SOA1 phenotypic analysis of herbicide-treated Arabidopsis plants (MIC, Tmic, leaf traits); type: in vivo; settings: for Characteristic symptoms (phenotype): herbicide treated Arabidopsis; for Dev. leafCurling / Dev. leafTwisting / Dev. matureLeafAnthocyanins / Dev. matureLeafChlorosis / Dev. matureLeafNecrosis / Dev. newLeafAnthocyanins / Dev. newLeafChlorosis / Dev. newLeafNecrosis / Dev. pointedLeaves: numeric value standardized to mock treated; for Dev. leafWidth: numeric value standardized to the average response for the mock treated tissues; for Symptom Class: three-week-old Arabidopsis plants treated with herbicide, phenotype classes of FIG. 12
Arabidopsis thaliana [3] = experiment: MOA1 phenotypic profiling of Arabidopsis sprayed with unknown and commercial herbicides; type: in vivo; settings: Ward's method
[4] = tested on: Saccharomyces cerevisiae wild type strain BY4743; experiment: AF1 metabolite analysis (GC-MS, LC-MS) of yeast cells treated with antifungal drugs; type: cell-based; parameters: Fold Change: scale not given here
[5] = tested on: Saccharomyces cerevisiae wild type strain BY4743; experiment: AF1 combined gene expression and metabolite data mapped to KEGG reactions and pathways; type: cell-based; settings: yeast AF1
Excerpt: In AF1, two different technologies were utilized: gene expression analysis (for examination of mRNA expression) and metabolite analysis. […] As noted previously, existing metabolic databases may be helpful in practicing the methods and systems of the present invention, but many databases include limitations that make their use in data analysis and pathway mapping less than straightforward. […] This caveat to KEGG makes it difficult to pinpoint the correct pathway when attempting to link a gene to a specific pathway. […] The pathway score indicates how meaningful the mapping is, or how likely it is to be correctly indicative of the pathway involved in the perturbation under examination. The method provides a pathway score based on perturbation levels of genes and/or compounds and the information content of each gene and/or compound in the pathway, i.e., a pathway score indicates the extent to which other pathways are mapped to a gene/compound. For example, imagine that two genes are perturbed in a particular experiment. One gene maps to only one pathway, giving a high degree of probability that the perturbed pathway is the one identified in the mapping. The second gene maps to three pathways. In the later example, there is only one-third the probability that the pathway identified in the mapping is the one perturbed. The present invention provides a method for calculating the pathway scores, so that more weight is given to a score of a gene or compound that maps to only one pathway than to a score of a gene or compound that maps to multiple pathways. […] Where n=the total number of genes in the pathway; ipath—count=the number of pathways containing a gene; and j=the number of genes in the pathway that are perturbed. Another factor to be considered when weighting a pathway score is the degree of perturbation. Degree of perturbation can be calculated, for example, based on a number of standard deviations from a norm, and included in an equation such as the one shown above, so that not only the number of pathways is taken into account, but also accounts for the amount of gene transcript or compound present as compared to a control. Compounds were also linked to pathways using the KEGG database. KEGG links 676 compounds measured in AF1 to a total of 92 pathways. Of the 676 compounds under consideration, 77 were detected in the AF1 samples. […] The multiple mapping feature of KEGG makes it difficult to pinpoint the correct pathway when trying to link a compound to a specific pathway. […] A pathway score calculation is applied to the compounds to account for both information content (number of pathways a compound maps to) and perturbation level. The data were then combined to determine the number of reactions showing an enzyme and at least one compound perturbed, and to determine the number of pathways having at least one enzyme and one perturbed compound perturbed. The results of the analysis are represented in Tables 16 and 17, and were difficult to interpret, illustrating that the ability to draw conclusions from compound mapping to pathways is limited when absent additional data.

[6] = 250 μg/ml (partially inhibitory)

## O=C(O)CNCP(=O)(O)O [Glyphosate]
Arabidopsis thaliana [1]; after one hour
  Tyrosine level (metabolite downstream from the SOA): decreased relative to the control after one hour
Magnaporthe grisea; [6]
  Growth of M. grisea with ammonium or glutamine provided: Little growth defect
  Growth of M. grisea with nitrate, nitrite, or glutamate as the sole nitrogen source: inhibited growth
[2]
  Dev. tMic: 2
  Characteristic symptoms (phenotype): anthocyanin accumulation in the older leaves accompanied by chlorosis of the newly emerging leaves
  Dev. leafCurling: 0
  Dev. leafTwisting: 0
  Dev. matureLeafAnthocyanins: 3
  Dev. matureLeafChlorosis: 1
  Dev. matureLeafNecrosis: 3
  Dev. newLeafAnthocyanins: 1
  Dev. newLeafChlorosis: 2
  Dev. newLeafNecrosis: 0
  Dev. pointedLeaves: 1
  Dev. leafWidth: 0
  Symptom Class: 4
Arabidopsis thaliana [3]
  Hierarchical cluster analysis of the eleven phenotypic characteristics / phenotype: clustered with amitrole

## CC(=O)N1CCN(c2ccc(OCC3COC(Cn4ccnc4)(c4ccc(Cl)cc4Cl)O3)cc2)CC1 (centres unmarked) [Ketoconazole]
[4]; P < 0.1, yeast, 2x MIC, two hours
  # Compounds perturbed by treatment: 15
[5]
  # Reactions (title: Number Of Pathways Having at Least One Enzyme and One Compound Perturbed): 24

## CC[C@@H]([C@H](C)O)n1ncn(-c2ccc(N3CCN(c4ccc(OC[C@@H]5CO[C@@](Cn6cncn6)(c6ccc(F)cc6F)C5)cc4)CC3)cc2)c1=O [Posaconazole]
[4]; metabolite NacetylD-glucosamine, platform nLC
  Fold Change: 0
[4]; metabolite NacetylD-glucosamine, platform pLC
  Fold Change: 0
[4]; metabolite NacetylL-glutamate, platform pLC
  Fold Change: 0
[4]; metabolite NacetylL-ornithine, platform nLC
  Fold Change: 0
[4]; metabolite niacinamide, platform pLC
  Fold Change: 0
[4]; metabolite nopaline, platform pLC
  Fold Change: 0
[4]; metabolite ornithine3, platform GC
  Fold Change: 0.041
[4]; metabolite orotic acid, platform nLC
  Fold Change: 0
[4]; metabolite phenylpyruvic acid, platform nLC
  Fold Change: 0
[4]; metabolite phosphoenolpyruvate, platform nLC
  Fold Change: 0
[4]; metabolite phosphoenolpyruvate, platform pLC
  Fold Change: 0
[4]; metabolite pinitol, platform nLC
  Fold Change: 0
[4]; metabolite porphobilinogen, platform nLC
  Fold Change: 0
[4]; metabolite progesterone, platform pLC
  Fold Change: 0
[4]; metabolite retinoic acid, platform nLC
  Fold Change: 0
[4]; metabolite riboflavin, platform pLC
  Fold Change: 0
[4]; metabolite salicylic/HObenzoic, platform nLC
  Fold Change: 0
[4]; metabolite shikimic acid, platform nLC
  Fold Change: 0
[4]; metabolite sinapinic acid, platform nLC
  Fold Change: 0
[4]; metabolite sugar-phosphate, platform pLC
  Fold Change: 0
[4]; metabolite thiamine, platform pLC
  Fold Change: 0
[4]; metabolite thymine, platform nLC
  Fold Change: 0
[4]; metabolite thymine, platform pLC
  Fold Change: 0
[4]; metabolite tryptophan, platform pLC
  Fold Change: 0
[4]; metabolite uric acid, platform pLC
  Fold Change: 0
[4]; metabolite urocanic acid, platform nLC
  Fold Change: 0
[4]; metabolite urocanic acid, platform pLC
  Fold Change: 0
[4]; metabolite xanthosine (diH2O), platform pLC
  Fold Change: 0
[4]; metabolite xanthosine-DiH2O, platform nLC
  Fold Change: 0
[4]; metabolite zeatin, platform nLC
  Fold Change: 0
[4]; metabolite zeatin, platform pLC
  Fold Change: 0
[5]
  # Reactions (title: Number Of Pathways Having at Least One Enzyme and One Compound Perturbed): 3

## OC(Cn1cncn1)(Cn1cncn1)c1ccc(F)cc1F [Fluconazole]
[5]
  # Reactions (title: Number Of Pathways Having at Least One Enzyme and One Compound Perturbed): 15

## CP(=O)(O)CCC(N)C(=O)O (centres unmarked) [Glufosinate]
Arabidopsis thaliana [1]; MOA1, 20 min and 1 hr after spraying
  Stress-related (commonly regulated) metabolites: Only a few, if any, stress-related metabolites were observed
Magnaporthe grisea
  Nitrogen sources M. grisea can utilize in presence of compound: only able to utilize glutamine and glutamate as nitrogen sources
[2]
  Dev. tMic: 1
  Characteristic symptoms (phenotype): Chlorosis and leaf curling
  Dev. leafCurling: 2
  Dev. leafTwisting: 1
  Dev. matureLeafAnthocyanins: 0
  Dev. matureLeafChlorosis: 3
  Dev. matureLeafNecrosis: 0
  Dev. newLeafAnthocyanins: 0
  Dev. newLeafChlorosis: 3
  Dev. newLeafNecrosis: 0
  Dev. pointedLeaves: 1
  Dev. leafWidth: −2
  Symptom Class: 3
Arabidopsis thaliana [3]
  Hierarchical cluster analysis of the eleven phenotypic characteristics / phenotype: clustered with amitrole

Reference: patent publication US20040019430A1, “Methods and systems for analyzing complex biological systems” (priority 2001, published 2004)
